Assay results from ChEMBL document CHEMBL1121981, “Synthesis and biological evaluation of a metazocine-containing enkephalinamide. Evidence for nonidentical roles of the tyramine moiety in opiates and opioid peptides” (J Med Chem, 1982).
Activity calls are given as the source filed them. The calls are words filed in the database; no cut-off is given here.

Columns and labels:
Format in all cases: functional, tissue-based
Mu-type opioid receptor = Mu-type opioid receptor (Cavia porcellus, UniProt P97266); test: Mu opioid receptor agonist activity as inhibition of electrically stimulated mysenteric plexus in guinea pig ileum
Mu-type opioid receptor, sequence (P97266 whole entry): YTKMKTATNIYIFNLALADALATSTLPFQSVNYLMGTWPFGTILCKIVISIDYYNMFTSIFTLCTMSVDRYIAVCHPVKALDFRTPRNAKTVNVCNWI

[1] = molecular target: Mu-type opioid receptor (Cavia porcellus) (UniProt P97266); test: Mu opioid receptor agonist activity was determined by inhibition of electrically stimulated myenteric plexus in guinea pig ileum
Mu-type opioid receptor (Cavia porcellus), sequence (P97266 whole entry): as above

[2] = molecular target: Mu-type opioid receptor (Cavia porcellus) (UniProt P97266); test: Mu opioid receptor agonist activity was determined by inhibition of electrically stimulated myenteric plexus in guinea pig ileum; Inactive
[3] = molecular target: Mu-type opioid receptor (Cavia porcellus) (UniProt P97266); test: Mu opioid receptor agonist activity was determined by inhibition of electrically stimulated myenteric plexus in guinea pig ileum; Inactive, weak antagonism with agonist morphine PA2 of <6; details: filed as antagonist

## CSCC[C@H](NC(=O)[C@H](Cc1ccccc1)NC(=O)CNC(=O)CNC(=O)C1CC2(C)c3cc(O)ccc3CC(C2C)N1C)C(N)=O (some centres not stated)
Mu-type opioid receptor
  IC50: 7970 nM

## CSCC[C@H](NC(=O)[C@H](Cc1ccccc1)NC(=O)CNC(=O)[C@@H](C)NC(=O)[C@@H](N)Cc1ccc(O)cc1)C(N)=O
[1]
  Relative potency: 329
Mu-type opioid receptor
  IC50: 17.4 nM

## CC1C2(C)CCN(C)C1(C(N)=O)Cc1ccc(O)cc12 (configuration not stated)
[2]
  Relative potency: inactive

## CSCC[C@@H](NC(=O)[C@H](Cc1ccccc1)NC(=O)CNC(=O)CNC(=O)C1CC2(C)c3cc(O)ccc3CC(C2C)N1C)C(N)=O (some centres not stated)
[1]
  Relative potency: 0.007

## CC1C2(C)CCN(C)C1(C#N)Cc1ccc(O)cc12 (racemic)
[2]
  Relative potency: inactive

## CC1C2Cc3ccc(O)cc3C1(C)CC(C(N)=O)N2C (single isomer, unassigned; (+))
[2]
  Relative potency: inactive

## CSCC[C@@H](NC(=O)[C@H](Cc1ccccc1)NC(=O)CNC(=O)CNC(=O)C12Cc3ccc(O)cc3C(C)(CCN1C)C2C)C(N)=O (single isomer, unassigned; (+))
[2]
  Relative potency: inactive

## CSCC[C@@H](NC(=O)[C@H](Cc1ccccc1)NC(=O)CNC(=O)CNC(=O)C1CC2(C)c3cc(O)ccc3CC(C2C)N1C)C(N)=O (single isomer, unassigned; (+))
[2]
  Relative potency: inactive

## CC1C2Cc3ccc(O)cc3C1(C)CC(C(N)=O)N2C (single isomer, unassigned; (-)) [listing 1 of 2 here]
Mu-type opioid receptor
  IC50: 6090 nM

## CC1C2(C)CCN(C)C1(C(N)=O)Cc1ccc(O)cc12 (single isomer, unassigned; (-)) [listing 1 of 2 here]
Mu-type opioid receptor
  IC50: 2820 nM

## CC1C2(C)CCN(C)C1(C(N)=O)Cc1ccc(O)cc12 (single isomer, unassigned; (-)) [listing 2 of 2 here]
[1]
  Relative potency: 0.02

## CC1C2Cc3ccc(O)cc3C1(C)CC(C(N)=O)N2C (single isomer, unassigned; (-)) [listing 2 of 2 here]
[1]
  Relative potency: 0.009

## CSCC[C@@H](NC(=O)[C@H](Cc1ccccc1)NC(=O)CNC(=O)CNC(=O)C12Cc3ccc(O)cc3C(C)(CCN1C)C2C)C(N)=O (single isomer, unassigned; (-))
[3]
  Relative potency: Partial antagonist

## CC1C2Cc3ccc(O)cc3C1(C)CC(C#N)N2C (single isomer, unassigned; form 1)
Mu-type opioid receptor
  IC50: 510 nM

## CC1C2Cc3ccc(O)cc3C1(C)CC(C#N)N2C (single isomer, unassigned; form 2)
Mu-type opioid receptor
  IC50: 510 nM

## C[C@H]1[C@@H]2Cc3ccc(O)cc3[C@]1(C)CCN2C [METAZOCINE]
Mu-type opioid receptor
  IC50: 94 nM
